# Test results reported in ChEMBL document CHEMBL5724806, “Unraveling interindividual differences and functional consequences of gut microbial metabolism of immunosuppressants” (2024).
# Legend:
# Assay type in all cases: ADME
# [1] = The drug is tested on Enterococcus faecalis strain: ATCC29212 for biotransformation under anaerobic condition. The drug concentrations were measured over 6 timepoints collected between 0 and 12 hours of incubation by liquid-chromatography-coupled mass spectrometry (LC–MS); set-up: dose 5 uM, timepoint 0, 1.5, 3, 6, 9, 12 hours; conditions: 5 µM
# [2] = (§1) The drug is tested on the gut metagenome community of A-08 with ENA study accession number: PRJEB31790 for biotransformation under microaerobic condition. The drug concentrations were measured over 7 timepoints collected between 0 and 12 hours of incubation by liquid-chromatography-coupled mass spectrometry (LC–MS); set-up: dose 5 uM, timepoint 0, 0.75, 1.5, 3, 6, 9, 12 hours; conditions: 5 µM
# [3] = The drug is tested on Collinsella aerofaciens strain: DSM3979 for biotransformation under anaerobic condition. The drug concentrations were measured over 6 timepoints collected between 0 and 12 hours of incubation by liquid-chromatography-coupled mass spectrometry (LC–MS); set-up: dose 5 uM, timepoint 0, 1.5, 3, 6, 9, 12 hours; conditions: 5 µM
# [4] = as §1, with “A-02” for “A-08”, “anaerobic” for “microaerobic”; set-up: dose 5 uM, timepoint 0, 0.75, 1.5, 3, 6, 9, 12 hours; conditions: 5 µM
# [5] = as §1, with “A-07” for “A-08”, “anaerobic” for “microaerobic”; set-up: dose 5 uM, timepoint 0, 0.75, 1.5, 3, 6, 9, 12 hours; conditions: 5 µM
# [6] = The drug is tested on Bacteroides xylanisolvens strain: HM 722 for biotransformation under anaerobic condition. The drug concentrations were measured over 6 timepoints collected between 0 and 12 hours of incubation by liquid-chromatography-coupled mass spectrometry (LC–MS); set-up: dose 5 uM, timepoint 0, 1.5, 3, 6, 9, 12 hours; conditions: 5 µM
# [7] = as §1, with “A-05” for “A-08”, “anaerobic” for “microaerobic”; set-up: dose 5 uM, timepoint 0, 0.75, 1.5, 3, 6, 9, 12 hours; conditions: 5 µM
# [8] = The drug is tested on Gemella morbillorum strain: DSM20572 for biotransformation under anaerobic condition. The drug concentrations were measured over 6 timepoints collected between 0 and 12 hours of incubation by liquid-chromatography-coupled mass spectrometry (LC–MS); set-up: dose 5 uM, timepoint 0, 1.5, 3, 6, 9, 12 hours; conditions: 5 µM
# [9] = The drug is tested on Bacteroides ovatus strain: ATCC 8483 for biotransformation under anaerobic condition. The drug concentrations were measured over 6 timepoints collected between 0 and 12 hours of incubation by liquid-chromatography-coupled mass spectrometry (LC–MS); set-up: dose 5 uM, timepoint 0, 1.5, 3, 6, 9, 12 hours; conditions: 5 µM
# [10] = The drug is tested on Capnocytophaga ochracea strain: DSM7271 for biotransformation under anaerobic condition. The drug concentrations were measured over 6 timepoints collected between 0 and 12 hours of incubation by liquid-chromatography-coupled mass spectrometry (LC–MS); set-up: dose 5 uM, timepoint 0, 1.5, 3, 6, 9, 12 hours; conditions: 5 µM
# [11] = The drug is tested on Lactobacillus ruminis strain: ATCC25644 for biotransformation under microaerobic condition. The drug concentrations were measured over 6 timepoints collected between 0 and 12 hours of incubation by liquid-chromatography-coupled mass spectrometry (LC–MS); set-up: dose 5 uM, timepoint 0, 1.5, 3, 6, 9, 12 hours; conditions: ligilactobacillus ruminis, 5 µM
Bacterial Biotransformation [1],Bacterial Biotransformation [2],Bacterial Biotransformation [3],Bacterial Biotransformation [4],Bacterial Biotransformation [5],Bacterial Biotransformation [6],Bacterial Biotransformation [7],Bacterial Biotransformation [8],Bacterial Biotransformation [9],Bacterial Biotransformation [10],Bacterial Biotransformation [11],Compound
Compound NOT metabolized,Compound NOT metabolized,Compound NOT metabolized,Compound NOT metabolized,Compound NOT metabolized,Compound NOT metabolized,Compound NOT metabolized,Compound NOT metabolized,Compound NOT metabolized,Compound NOT metabolized,Compound NOT metabolized,CCOc1nc2cccc(C(=O)O)c2n1Cc1ccc(-c2ccccc2-c2nnn[nH]2)cc1
Compound NOT metabolized,Compound NOT metabolized,Compound NOT metabolized,Compound NOT metabolized,Compound NOT metabolized,Compound NOT metabolized,Compound NOT metabolized,Compound NOT metabolized,Compound NOT metabolized,Compound NOT metabolized,Compound NOT metabolized,CCOC(=O)[C@H](CCc1ccccc1)N[C@@H](C)C(=O)N1[C@H](C(=O)O)C[C@@H]2CCC[C@@H]21
Compound NOT metabolized,Compound NOT metabolized,Compound NOT metabolized,Compound NOT metabolized,Compound NOT metabolized,Compound NOT metabolized,Compound NOT metabolized,Compound NOT metabolized,Compound NOT metabolized,Compound NOT metabolized,Compound NOT metabolized,C[C@@H](NCCCc1cccc(C(F)(F)F)c1)c1cccc2ccccc12
Compound NOT metabolized,Compound NOT metabolized,Compound NOT metabolized,Compound NOT metabolized,Compound NOT metabolized,Compound NOT metabolized,Compound NOT metabolized,Compound NOT metabolized,Compound NOT metabolized,Compound NOT metabolized,Compound NOT metabolized,CC(C)NCC(O)COc1ccc(CC(N)=O)cc1 (configuration not stated) [ATENOLOL]
Compound metabolized,Compound metabolized,Compound metabolized,Compound metabolized,Compound metabolized,Compound metabolized,Compound metabolized,Compound NOT metabolized,Compound metabolized,Compound NOT metabolized,Compound metabolized,Cn1cnc([N+](=O)[O-])c1Sc1ncnc2nc[nH]c12 [AZATHIOPRINE]
Compound NOT metabolized,Compound metabolized,Compound NOT metabolized,Compound metabolized,Compound metabolized,Compound NOT metabolized,Compound NOT metabolized,Compound NOT metabolized,Compound NOT metabolized,Compound NOT metabolized,Compound NOT metabolized,C[C@H]1C[C@H]2[C@@H]3CCC4=CC(=O)C=C[C@]4(C)[C@@]3(F)[C@@H](O)C[C@]2(C)[C@@]1(O)C(=O)CO [BETAMETHASONE]
Compound NOT metabolized,Compound metabolized,Compound NOT metabolized,Compound NOT metabolized,Compound metabolized,Compound NOT metabolized,Compound NOT metabolized,Compound NOT metabolized,Compound NOT metabolized,Compound NOT metabolized,Compound NOT metabolized,CCCC1O[C@@H]2C[C@H]3[C@@H]4CCC5=CC(=O)C=C[C@]5(C)[C@H]4[C@@H](O)C[C@]3(C)[C@]2(C(=O)CO)O1 (some centres not stated) [BUDESONIDE]
Compound NOT metabolized,Compound metabolized,Compound NOT metabolized,Compound metabolized,Compound metabolized,Compound NOT metabolized,Compound metabolized,Compound NOT metabolized,Compound NOT metabolized,Compound NOT metabolized,Compound NOT metabolized,C[C@]12CCC(=O)C=C1CC[C@@H]1[C@@H]2C(=O)C[C@@]2(C)[C@H]1CC[C@]2(O)C(=O)CO [CORTISONE]
Compound NOT metabolized,Compound metabolized,Compound NOT metabolized,Compound metabolized,Compound metabolized,Compound NOT metabolized,Compound NOT metabolized,Compound NOT metabolized,Compound NOT metabolized,Compound NOT metabolized,Compound NOT metabolized,C[C@@H]1C[C@H]2[C@@H]3CCC4=CC(=O)C=C[C@]4(C)[C@@]3(F)[C@@H](O)C[C@]2(C)[C@@]1(O)C(=O)CO [DEXAMETHASONE]
Compound NOT metabolized,Compound metabolized,Compound NOT metabolized,Compound metabolized,Compound metabolized,Compound metabolized,Compound metabolized,Compound NOT metabolized,Compound metabolized,Compound NOT metabolized,Compound NOT metabolized,COc1ccc([C@@H]2Sc3ccccc3N(CCN(C)C)C(=O)[C@@H]2OC(C)=O)cc1 [DILTIAZEM]
Compound metabolized,Compound metabolized,Compound metabolized,Compound metabolized,Compound metabolized,Compound NOT metabolized,Compound metabolized,Compound NOT metabolized,Compound NOT metabolized,Compound NOT metabolized,Compound NOT metabolized,CO[C@H]1C[C@@H]2CC[C@@H](C)[C@@](O)(O2)C(=O)C(=O)N2CCCC[C@H]2C(=O)O[C@H]([C@H](C)C[C@@H]2CC[C@@H](OCCO)[C@H](OC)C2)CC(=O)[C@H](C)/C=C(\C)[C@@H](O)[C@@H](OC)C(=O)[C@H](C)C[C@H](C)/C=C/C=C/C=C/1C [EVEROLIMUS]

Compound,Bacterial Biotransformation [1],Bacterial Biotransformation [2],Bacterial Biotransformation [3],Bacterial Biotransformation [4],Bacterial Biotransformation [5],Bacterial Biotransformation [6],Bacterial Biotransformation [7],Bacterial Biotransformation [8],Bacterial Biotransformation [9],Bacterial Biotransformation [10],Bacterial Biotransformation [11]
CCOC(=O)C1=C(COCCN)NC(C)=C(C(=O)OC)C1c1ccccc1Cl (configuration not stated) [AMLODIPINE],Compound NOT metabolized,Compound NOT metabolized,Compound NOT metabolized,Compound metabolized,Compound NOT metabolized,Compound NOT metabolized,Compound NOT metabolized,Compound NOT metabolized,Compound NOT metabolized,Compound NOT metabolized,Compound NOT metabolized
